Assay results taken from patent US20230102836A1, “Amoebicidal Compositions for Contact Lens Solutions” (University of the West of Scotland, priority 2019, published 2023).

Tested on: A. castellanii trophozoites
Assay: SDS disintegration of QAC-treated trophozoites
Assay type: cell-based, Acanthamoeba castellanii ATCC 50370
Settings: QAC18-treated, 0.5% SDS for 30 min
Protocol: Acanthamoeba trophozoites ([…]) incubated without (FIG. 2A), with QAC18 at 37.5 μg/ml for 1 h at 25° C. (FIG. 2B), and 0.5% SDS for 30 min (FIG. 2C). QAC18 reduced trophozoites sizes from 29.02±0.23 (FIG. 2A) to 7.87 f 0.93 (FIG. 2B) which disintegrated after 30 min treatment with SDS (FIG. 2C).
Acanthamoeba castellanii ATCC 50370 trophozoites and cysts were cultured in Peptone Glucose (PG) medium and encystment medium (Chagla A H, Griffiths A J (1974) Microbiology: 85(1): 139-145) respectively at 25° C. Cysts were prepared by incubating trophozoites for 8 days in encystment medium and integrity validated with calcofluor (0.25 μg/ml) assay (Gatti S et al (2010) J. Med. Microbiol.; 59: 1324-1330) or sodium dodecyl sulfate (SDS, 0.5% w/v) disintegration assay (Dudley R et al (2005) Acta Trop.; 9: 100-8) and microscopic observation.

Compound: CCCCCCCCCCCCCCCCCC[N+](C)(C)C.[Br-] [QAC18, octadecyltrimethyl ammonium bromide]
- Disintegration of shrunk treated trophozoites by 0.5% SDS: 92%
